Experimental data taken from ChEMBL document CHEMBL1201862, “PubChem BioAssay data set” (2004).
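Cells were grown in 96-well plates and exposed to each compound for 48 hours at five concentrations; endpoints were interpolated linearly between bracketing concentrations, or set to the highest concentration if not reached. The concentration for 50% growth inhibition is given as GI50.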 The source made the active and inactive calls. Cut-off read from the data, not from the text of the source: active = GI50 up to about 1.1 µM and inactive = higher.

Assays:
Test in all cases: inhibition of tumour cell growth, NCI panel, 48 h
MCF7 = test system: MCF7
M14 = test system: M14
UO-31 = test system: UO-31
UACC-62 = test system: UACC-62
EKVX = test system: EKVX
ACHN = test system: ACHN
SNB-19 = test system: SNB-19
SF-295 = test system: SF-295
MOLT-4 = test system: MOLT-4
MDA-MB-435 = test system: MDA-MB-435
BT-549 = test system: BT-549
NCI-H226 = test system: NCI-H226
Malme-3M = test system: Malme-3M
MDA-N = test system: MDA-N
KM12 = test system: KM12
SK-MEL-28 = test system: SK-MEL-28
OVCAR-5 = test system: OVCAR-5
SR = test system: SR
786-0 = test system: 786-0
DU-145 = test system: DU-145
HCT-15 = test system: HCT-15
A498 = test system: A498
OVCAR-3 = test system: OVCAR-3
NCI/ADR-RES = test system: NCI/ADR-RES
COLO 205 = test system: COLO 205
SK-MEL-5 = test system: SK-MEL-5
Hs-578T = test system: Hs-578T
SF-268 = test system: SF-268
OVCAR-8 = test system: OVCAR-8
RPMI-8226 = test system: RPMI-8226
SK-OV-3 = test system: SK-OV-3
SN12C = test system: SN12C
SK-MEL-2 = test system: SK-MEL-2
T47D = test system: T47D
SF-539 = test system: SF-539
IGROV-1 = test system: IGROV-1
A549 = test system: A549
RXF 393 = test system: RXF 393
NCI-H23 = test system: NCI-H23
HCT-116 = test system: HCT-116
SW-620 = test system: SW-620
LOX IMVI = test system: LOX IMVI
CCRF-CEM = test system: CCRF-CEM
OVCAR-4 = test system: OVCAR-4
HL-60 = test system: HL-60
NCI-H522 = test system: NCI-H522
K562 = test system: K562
HT-29 = test system: HT-29
HOP-92 = test system: HOP-92
SNB-75 = test system: SNB-75
CAKI-1 = test system: CAKI-1
HOP-62 = test system: HOP-62
PC-3 = test system: PC-3
U-251 = test system: U-251
HCC 2998 = test system: HCC 2998
NCI-H460 = test system: NCI-H460
TK-10 = test system: TK-10
UACC-257 = test system: UACC-257

Measured: GI50

CCC(=O)Nc1ccc(NC(C#N)c2cccc(Oc3ccccc3)c2)cc1 (centres undefined)
45 µM: HCT-15
inactive: MCF7 35.2 µM | M14 40.3 µM | UO-31 42.2 µM | UACC-62 52 µM | EKVX 67.6 µM | ACHN 32.7 µM | SNB-19 > 100 µM | SF-295 45.7 µM | MOLT-4 4.29 µM | MDA-MB-435 35.5 µM | BT-549 57.7 µM | NCI-H226 30.3 µM | Malme-3M 26.1 µM | MDA-N 34.4 µM | KM12 58.6 µM | SK-MEL-28 53.3 µM | OVCAR-5 > 100 µM | SR 18.2 µM | 786-0 35.5 µM | DU-145 48.3 µM | A498 > 100 µM | OVCAR-3 52.4 µM | NCI/ADR-RES 28.2 µM | COLO 205 40.4 µM | SK-MEL-5 22.6 µM | Hs-578T 67.3 µM | SF-268 33.6 µM | OVCAR-8 26.2 µM | RPMI-8226 23.1 µM | SK-OV-3 > 100 µM | SN12C 51.8 µM | SK-MEL-2 35 µM | T47D 42.3 µM | SF-539 32.9 µM | IGROV-1 48.2 µM | A549 62.5 µM | RXF 393 38.6 µM | NCI-H23 45.2 µM | HCT-116 34.5 µM | SW-620 38.7 µM | LOX IMVI 21.4 µM | CCRF-CEM 32.1 µM | OVCAR-4 54.1 µM | HL-60 13.5 µM | NCI-H522 48 µM | K562 27.5 µM | HT-29 33.8 µM | HOP-92 34.8 µM | SNB-75 42 µM | CAKI-1 54.6 µM | HOP-62 49.7 µM | PC-3 63.4 µM

Cc1oc(N)c(S(=O)(=O)c2ccc(Cl)cc2)c1C
inactive: MCF7 50.4 µM | M14 29.6 µM | UO-31 37 µM | U-251 > 100 µM | UACC-62 37.9 µM | HCC 2998 23.8 µM | EKVX 45 µM | NCI-H460 22.2 µM | ACHN 37 µM | SNB-19 > 100 µM | SF-295 39.5 µM | MOLT-4 47.3 µM | MDA-MB-435 55.3 µM | BT-549 17.6 µM | NCI-H226 53.1 µM | Malme-3M 29.9 µM | KM12 37.1 µM | SK-MEL-28 > 100 µM | OVCAR-5 > 100 µM | TK-10 83.6 µM | SR 86.3 µM | 786-0 73.8 µM | DU-145 > 100 µM | A498 > 100 µM | OVCAR-3 29.1 µM | NCI/ADR-RES 34.9 µM | COLO 205 > 10 µM | SK-MEL-5 44.7 µM | Hs-578T 50.7 µM | SF-268 43.1 µM | OVCAR-8 50.5 µM | RPMI-8226 40.2 µM | SK-OV-3 42.6 µM | SK-MEL-2 28 µM | T47D 31.2 µM | SF-539 25.8 µM | IGROV-1 85.5 µM | A549 34.4 µM | RXF 393 30.8 µM | NCI-H23 32.8 µM | HCT-116 39.4 µM | SW-620 > 100 µM | CCRF-CEM 78.9 µM | OVCAR-4 21.7 µM | HL-60 88.9 µM | UACC-257 40.2 µM | NCI-H522 30 µM | K562 53.6 µM | HT-29 54.3 µM | HOP-92 > 100 µM | SNB-75 29.9 µM | PC-3 23.7 µM
34 µM: HCT-15

CN1CSC(=S)N(c2cccc(C(F)(F)F)c2)C1
inactive: MCF7 17.3 µM | M14 17.9 µM | UO-31 26.4 µM | U-251 32 µM | UACC-62 16.9 µM | HCC 2998 18.6 µM | EKVX 25 µM | NCI-H460 20.2 µM | ACHN 19 µM | SNB-19 21.5 µM | SF-295 21.8 µM | MOLT-4 24.7 µM | MDA-MB-435 22.5 µM | BT-549 20.7 µM | NCI-H226 24.3 µM | Malme-3M 18.7 µM | MDA-N 29.2 µM | KM12 22.4 µM | SK-MEL-28 23.1 µM | OVCAR-5 18.6 µM | TK-10 28.6 µM | SR 23.4 µM | 786-0 26.2 µM | DU-145 41.9 µM | A498 28.3 µM | OVCAR-3 30 µM | NCI/ADR-RES 26.9 µM | COLO 205 19 µM | SK-MEL-5 17.1 µM | Hs-578T 28.9 µM | SF-268 23.1 µM | OVCAR-8 25.4 µM | RPMI-8226 17.5 µM | SK-OV-3 29.4 µM | SN12C 36.1 µM | SK-MEL-2 21.3 µM | T47D 31.7 µM | SF-539 20.7 µM | IGROV-1 18.7 µM | A549 24.3 µM | RXF 393 37.2 µM | NCI-H23 17.9 µM | HCT-116 34 µM | SW-620 31.6 µM | LOX IMVI 20.2 µM | CCRF-CEM 30.4 µM | OVCAR-4 19.3 µM | HL-60 25.5 µM | UACC-257 22.5 µM | NCI-H522 16.4 µM | K562 24 µM | HT-29 22.5 µM | HOP-92 18.9 µM | SNB-75 42.2 µM | CAKI-1 26.4 µM | HOP-62 26.9 µM | PC-3 25.1 µM
18.7 µM: HCT-15
